In US7511119B2, “PRAME peptide analogues” (MannKind Corporation, priority 2005, dated 2009):
“Also recorded” adds a separate entry of the source. Square brackets hold non-standard residues; d marks the D form. Ends that are not written are not given here. Nle = CCCC[C@H](N)C(=O)O; Nva = CCC[C@H](N)C(=O)O

Assays:
[1] = system: native peptide loaded splenocytes; test: In vivo cytotoxicity against native PRAME peptide-loaded splenocytes (CFSE); set-up: species or system HHD transgenic mice; conditions: pCTLR2 prime, peptide boost; FIGS. 30-31
[2] = system: 624.38 melanoma cells; test: Ex vivo cytotoxicity against PRAME+ A2+ human tumor cells; assay type: in vivo; conditions: splenocytes restimulated ex vivo with native PRAME peptide
Protocol: (§1) This was followed by two peptide boosts (2.5 μg) at day 28 and 31, with the analog L426Nva L433Nle.

[3] = system: PRAME425-433-specific T cells; test: Tetramer/CD8 co-staining of PRAME425-433-specific T cells; assay type: in vivo, HHD transgenic mice; conditions: versus boost with negative control peptide; FIG. 31
[4] = system: PRAME425-433 peptide; test: IFN-gamma ELISA of splenocytes after pCTLR2 prime and peptide boost; assay type: in vivo, HHD transgenic mice; conditions: pCTLR2 prime, 2.5 μg peptide boost; versus native peptide boost; FIG. 29
[5] = system: splenocytes; test: Ex vivo cytokine production (IFN-gamma ELISA) after boost with PRAME analogs; assay type: in vivo, HHD transgenic mice; conditions: 10 μg/ml native peptide, 48 hours; FIG. 32
[6] = target: HLA-A*0201 (Homo sapiens, UniProt P04439, D140Y/D185E/D98H/E176V/E277Q/G131W/G231S/I119V/I121R/I166T/I218V/L300P/L318F/N151K/N90K/P208A/P217A/Q86G/Q94H/R138H/R169H/T345S); test: iTopia affinity assay (ED50); assay type: binding; conditions: compared with the respective native peptide
From the text: Avidin-coated microtiter plates containing class I monomer loaded with a so-called placeholder peptide were used to evaluate peptide binding, affinity and off-rate. The monomer-coated plates were supplied as part of the iTopia Epitope Discovery System Kit (Beckman Coulter, Inc., San Diego, Calif., USA). Assay buffers, anti-MHC-FITC mAb and beta2-microglobulin and control peptides were also supplied with the kits.
Plates were read on the fluorometer. Sigmoidal dose response curves were generated using Prism software.

[7] = system: A2-624.28 control cells; test: Ex vivo cytotoxicity against A2-negative control cells; assay type: in vivo; conditions: same effector cells as for 624.38
Protocol: as §1

[8] = system: T cell line specific for the native epitope PRAME425-433; test: Cross-reactivity of PRAME425-433 analogs: IFN-gamma secretion from T cell line specific for native epitope; assay type: cell-based; conditions: analog peptide at approximately 0.3 μM; normalized to native PRAME425-433
Protocol: The analogs listed in FIGS. 26-28 were tested for various properties such as improved affinity and stability of binding, cross-reactivity with the native epitope, and immunogenicity as follows in Examples 40-48. […] The observed affinities of the analogs are reported as % binding (compared to the positive control) and ED50, and stability of binding as half time of dissociation. Cross reactivity with the native epitope was assessed by using the analog peptides to stimulate IFN-gamma secretion from a T cell line specific for the native epitope, essentially as described in Example 6. The data shown in FIGS. 26-28 were generated by stimulating with analog peptide at approximately 0.3 μM. […] In some cases, the reported values are the average of two determinations.

[9] = target: A0201 restricted MHC Class 1 molecules (Homo sapiens, UniProt P04439, D140Y/D185E/D98H/E176V/E277Q/G131W/G231S/I119V/I121R/I166T/I218V/N151K/N90K/P208A/P217A/Q86G/Q94H/R138H/R169H); test: iTopia off-rate assay (T1/2); assay type: binding; conditions: compared with the respective native peptide
Protocol: Avidin-coated microtiter plates containing class I monomer loaded with a so-called placeholder peptide were used to evaluate peptide binding, affinity and off-rate. […] Assay buffers, anti-MHC-FITC mAb and beta2-microglobulin and control peptides were also supplied with the kits.
The plates were then incubated on the allele-specific monomer plates at 37° C. The plates were measured at multiple time points (0, 0.5, 1, 1.5, 2, 4, 6 and 8 hrs) for relative fluorescence intensity. The time required for 50% of the peptide to dissociate from the MHC monomer is defined as the T1/2 value (hrs).
The binding and offrate (T1/2) was determined for six native epitopes and their analogs which were designed to enhance the immune response.

- stability of binding (half-time of dissociation), in words [9]: Significant increase in the stability
Substance: S{Nva}LQHLIG{Nle} (S[Nva]LQHLIG[Nle]) [Prame 425-433 (L426Nva, L433Nle)]
- in vivo cytotoxicity against native epitope, in words [1]: preserved induction of cytotoxicity; also recorded: capable of expanding the immunity against the native epitope
- cytotoxicity against 624.38 human tumor cells [2]: significant cytotoxicity
- expansion of T cells specific against the native epitope (tetramer staining) [3]: significantly higher
- IFN-γ production in response to PRAME425-433 peptide (ELISA) [4]: significant enhancement of IFN-γ production
- ex vivo cytokine production (IFN-γ) by splenocytes [5]: greater response
- binding affinity (ED50) / binding characteristics, in words [6]: similar, somewhat improved binding characteristics
- cytotoxicity against A2-negative control cells [7]: no significant activity
- IFN-γ production (cross-reactivity), in words [8]: significant level of cross-recativity
